Here are results for 2 compounds from article PMC6240096, “A hPSC-based platform to discover gene-environment interactions that impact human β-cell and dopamine neuron survival” (Nature Communications, 2018).

One assay deals with primary human islets. The experiment in a line: Primary human islets, INS and propidium iodide staining. It counts as cell-based. The conditions noted are these: 2 mM GSH. The source says:
Fig. 1 A high-content screen identifies propargite as a compound that induces pancreatic β-cell death. a Scheme of pancreatic β-cell differentiation and high-content chemical screen. b Chemical structure of two hit compounds: Propargite and Vacor. c Inhibitory curve and IC50 of propargite or Vacor on INS^+ and INS^− cells (n = 8). d, e Immunocytochemistry analysis (d) and survival rate (e) of H1-derived glucose-responding INS^+ and INS^− cells treated with different doses of propargite (n = 8). Pancreatic β-like cells were stained for INS (green) and all cells were counterstained by DAPI (blue). Scale bars, 100 μm. The survival rate was calculated by dividing the average number of cells in propargite-treated conditions by the average number of cells in the DMSO control. f, g Representative live images (f) and fold-change (g) of INS^w/GFP HES3-derived INS-GFP^+ cells treated with 1.6 μM propargite or DMSO control at different time points compared to initial time 0 (n = 3). Scale bars, 100 μm. h, i, j Representative images (h) and cell survival rate (i) or cell death rate (j) of DMSO or propargite-treated human primary islets (n = 3). Pancreatic β-cells were stained with the INS antibody (green) and dead cells were stained with propidium iodide (PI) (red). Scale bars, 200 μm. Scale bars for higher resolution (Zoom) images, […]. Pancreatic β-cell death rate was calculated by defining percentages of INS^+ PI^+ cells in INS^+ cells, and non-β-cell death rate was calculated by percentages of INS^−PI^+ cells in INS^− cells.

For another assay, the system named is INS+ cells. The experiment in a line: High-content survival / inhibitory curve, hESC-derived INS+ cells. Format: cell-based, human. How it is done: (§1) The screening library ToxCast Phase I was obtained from the US Environmental Protection Agency, which contains approximately 2000 compounds dissolved at 20 mM in DMSO. The H1 hESC-derived population was dissociated with Accutase and re-plated onto laminin V-coated 384-well plates at 5000 cells per well. After 16 h incubation, cells were treated with individual compounds from the ToxCast library with four concentrations, including 20 nM, 200 nM, 2 μM, and 20 μM, for each compound. After 4 days, the cells were fixed with 10% formalin and stained with an INS antibody and DAPI, followed by automatic imaging and analysis by ImageXpress^MICRO Automated High-Content Analysis System (Molecular Devices) to count the numbers of INS^+ and INS^− cells. The survival rate was calculated by dividing the numbers of INS^+ cells in compound treated conditions by the average number of INS^+ cells in DMSO-treated conditions. The compounds that induced more than 60% reduction of the survival rate of INS^+ cells and less than 20% of the INS^− cells were chosen as primary hits. Hit compounds were then selected and validated in three additional independent experiments using the same protocol as the primary screening.
hESCs-derived INS^+ cells, MSCs[43], neurons, and hepatocytes[44] were derived based on the reported protocols and re-plated on 96-well plates with Accutase digestion. Cardiomyocytes (CMs) were differentiated from H9-MYH6: mCherry reporter line, based on the reported protocol. After overnight incubation, cells were treated with DMSO or different doses of hit compounds for 4 days. After fixation, the cells were stained with markers for each cell type. DAPI was used to stain cell nuclei. Plates were analyzed by ImageXpress^MICRO Automated High-Content Analysis System.

Another assay relates to MIN6 cells. The experiment in a line: Western blotting of γ-H2A.X and extracellular HMGB1 in MIN6 cells. Format: cell-based, mouse. Conditions: 2 mM GSH, day 4. From the text: To extract intracellular protein, cells were placed on ice, washed twice with ice-cold PBS and lysed immediately with RIPA buffer (Life Technologies, 89900) supplemented with a protease inhibitor cocktail (Life Technologies, 78440). Cell lysates were then sonicated and the soluble fraction was collected after centrifugation. Protein amount was quantified by the BCA protein assay (Life Technologies, 23227). To extract extracellular HMGB1, tissue culture media were collected and concentrated using Afyon SDS-PAGE sample preparation kit (advansta, K-02101-025). 20 μg of total protein for each sample was mixed with loading buffer and incubated for 5 min at 95 °C before being loaded into NuPAGE® Novex® 4–12% […] Protein Gels (Life Technologies, NP0321BOX) for electrophoresis. Separated proteins were transferred to a PVDF membrane (Millipore, IPSN07852) after electrophoresis. The membrane was blocked with 5% non-fat milk in TBST (50 mM Tris–HCl at pH 8.0, 150 mM NaCl, 0.1% Tween 20) followed by overnight incubation with the primary antibody at 4 °C. The following antibodies were used with the dilution ratio noted: rabbit anti-HMGB1 (1:1000, Cell Signaling Technology, #6893), rabbit anti-γ-H2A.X (1:1000, Cell Signaling Technology, #9718), rabbit anti-LC3B (1:1000, Cell Signaling Technology, #3868), mouse anti-GSTT1 (1:1000, GeneTex, GTX109250), rabbit anti-GSTM1 (1:1000, R&D system, MAB6894), mouse anti-GAPDH (1:50000, Abcam, ab8245). A peroxidase conjugated horse anti-mouse IgG secondary antibody (1:20000, Vector Laboratories, PI-2000) or peroxidase conjugated goat anti-Rabbit IgG secondary antibody (1:20000, Vector Laboratories, PI-1000) was used for western blot. ECL signals were developed and detected using the SuperSignal™ West Femto Maximum Sensitivity Substrate (Life Technologies, 34094) and a C-DiGit Chemiluminescent Western Blot Scanner (LI-COR). Uncropped scans of all the blots were shown in Supplementary Fig. 7 in the Supplementary Information.
On the technique in general: In western blotting, separated proteins are transferred to a membrane and probed.

Another assay concerns INS- cells. The assay can be described thus: High-content survival / inhibitory curve, hESC-derived INS- cells. It counts as cell-based, human. Conditions: Homo sapiens, 96 h; H1 hESC-derived, β-cell differentiation protocol 1, 4 days treatment, n = 8. How it is done: as §1, with “Hit compounds were then selected and validated in three additional independent experiments using the same protocol as the primary screening.” left out
hESCs-derived INS^+ cells, MSCs[43], neurons, and hepatocytes[44] were derived based on the reported protocols and re-plated on 96-well plates with Accutase digestion. […] Plates were analyzed by ImageXpress^MICRO Automated High-Content Analysis System.

Regarding `N[C@@H](CCC(=O)N[C@@H](CS)C(=O)NCC(=O)O)C(=O)O` [GSH, glutathione, reference compound], the “rescue of propargite-induced β-cell-specific death in human islets” value in the assay on primary human islets is “rescued”. The “rescue of survival rate of INS+ cells after propargite treatment” value in the assay on INS+ cells (2 mM GSH) is “fully rescued”. Also, in the assay with MIN6 cells, the “rescue of propargite-induced DNA damage (γ-H2A.X expression)” value is reported as “fully rescued” and the “rescue of propargite-induced necrosis (extracellular HMGB1)” value was “partially rescued”.

What is called IC50 is the concentration that gives 50% inhibition. For `O=C(NCc1cccnc1)Nc1ccc([N+](=O)[O-])cc1` [Vacor, N-3 pyridylmethyl-N′’-4-nitrophenyl urea], the IC50 came to 61.6 µM in the assay with INS- cells and 4.89 µM in the assay on INS+ cells (Homo sapiens, 96 h, read-out: IC50 for INS+ cells).
